From patent publication EP1095657A2, “Compositions for the regulation of cytokine activity” (priority 1992, dated 1994)

Columns and labels:
[1] = test system: IDDM of NOD mice; experiment: Insulin dependent diabetes mellitus (IDDM) of NOD mice; format: in vivo
[2] = test system: experimental DTH reaction in mice; experiment: In vivo bioassay of inhibition of experimental DTH reactivity (oxazolone ear swelling); set-up: species or system mice (BALB/c or CD1); conditions: CD1 mice, s.c.
Description: Groups of inbred BALB/c (Jackson Laboratories, Bar Harbor, ME) or of outbred CD1 (Weizmann Institute Animal Breeding Center, Rehovot, Israel) mice are sensitized on the shaved abdominal skin with 100 µl of 2% oxazolone (OX) in acetone/olive oil (4/1, v/v) applied topically. DTH sensitivity is elicited 5 days later as follows: mice are challenged with 20 µl of 0.5% OX (10 µl administered topically to each side of the ear) in acetone/olive oil. A constant area of the ear is measured immediately before challenge and 24 and 48 h later with a Mitutoyo engineer's micrometer. The individual measuring ear swelling is blinded to the identity of the groups of mice. The increment (△) of ear swelling is expressed as the mean in units of 10^-2 mm or 10^-4 inch (+SE) depending on the micrometer that is used. Percent inhibition is calculated as follows: %Inhibition= 1-((Treated-negative control)/(positive control-negative control)) [formula]
Mice are treated with LMWH as in Example 5.1, injected the day before primary sensitization to OX. On the fifth day after sensitization to OX, the mice are challenged to induce a DTH reaction, as described above.
The positive control is the DTH reaction elicited in immunized mice in the absence of treatment with LMWH. The negative control is the background swelling produced by the antigen in naive (non-immunized) mice.
BALB/c mice (at least 5 mice per group) were sensitized on the shaved abdomen with 3% 4-ethoxymethylene-2-phenyl oxazolone (OX; BDH Chemicals, GB) in acetone/olive oil applied topically. DTH sensitivity was elicited 5 days later as follows. Mice were challenged with 0.5% OX in acetone/olive oil. The ear was measured immediately before challenge and 24 h later with Mitutoyo engineer's micrometer (Japan). The individual measuring the swelling of the ear was blinded to the identity of the groups of mice. To interfere with DTH response, the low molecular weight immuno-regulatory fractions, diluted in PBS, were administrated subcutaneously into the back of the treated mice at the indicated time schedules and concentrations. Treated mice were inspected during and after (>2 months) the treatment and no major side-effects were observed clinically.
In particular, CD1 mice (available from the Weizmann Institute Animal Breeding Center, Rehovot, Israel), 4-12 mice per group, were treated as described in Section 5.2 or 6.8.

## O=C(O)C1=C[C@H](O)[C@@H](OS(=O)(=O)O)[C@H](O[C@H]2[C@H](O)[C@@H](NS(=O)(=O)O)C(O)O[C@@H]2CO)O1 (stereo partly drawn) [H-9392, 2-O-sulfate-4-deoxy-4-en-iduronic acid-(α-1,4)-2-deoxy-2-N-sulfateglucosamine]
[1]; at 4.5 months, H-9392 30 ng/mouse, glucosamine 10,000 ng/mouse s.c., all control mice diabetic
  mice that had become diabetic: less than 50%
[1]; by age 5 months, H-9392 30 ng, glucosamine 10,000 ng, all control mice had died
  mice that had died, in words: none
[2]
  Inhmax: 78%
[2]; at that dose, value in parentheses in the cell taken as positive control, not reported
  DTH: 4.2 ± 0.7 (17.8 ± 0.9) 10^-2 mm
[2]; broadest of the compounds tested
  dose window: 0.000132-0.004 µg/gm
[2]; inhibitory, 0 = no effect
  "R" value: 6.5 x 10^4 % x (μg/gm)^-1
